From ChEMBL document CHEMBL3044543, “Synthetic sialic-acid-containing polyvalent antiviral inhibitors” (Med Chem Res, 2009)

Experiments:
[1] = target: Hemagglutinin (Influenza A virus, UniProt K7N5L2); assay: Binding affinity to Influenza virus A Hemagglutinin
[2] = target: Hemagglutinin (Influenza A virus) (UniProt K7N5L2); assay: Inhibition of Influenza virus A/H3N2/NIB/44/90M Hemagglutinin after 2 hr by horseradish peroxidase assay relative to Neu5Aalpha

Compound	IC50 [1] [mM]	Ratio [2]
CC(=O)N[C@H]1[C@H]([C@H](O)[C@H](O)CO)OC(OCCCCCCC(=O)NCc2cccc3ccccc23)(C(=O)O)C[C@@H]1OC(=O)CNS(=O)(=O)c1cccc2c(N(C)C)cccc12 (some centres not stated)	3	
CC(=O)N[C@H]1[C@H]([C@H](O)[C@H](O)CO)OC(OCc2ccc(NC(=O)CNC(=O)CCCCC(=O)NCC(=O)NCC(=O)NCC(=O)NCC(=O)NCC(=O)NCC(=O)NCC(=O)NCC(CNC(=O)CNC(=O)CNC(=O)CNC(=O)CNC(=O)CNC(=O)CNC(=O)CNC(=O)CCCCC(=O)NCC(=O)Nc3ccc(COC4(C(=O)O)C[C@H](O)[C@@H](NC(C)=O)[C@H]([C@H](O)[C@H](O)CO)O4)cc3)(CNC(=O)CNC(=O)CNC(=O)CNC(=O)CNC(=O)CNC(=O)CNC(=O)CNC(=O)CCCCC(=O)NCC(=O)Nc3ccc(COC4(C(=O)O)C[C@H](O)[C@@H](NC(C)=O)[C@H]([C@H](O)[C@H](O)CO)O4)cc3)CNC(=O)CNC(=O)CNC(=O)CNC(=O)CNC(=O)CNC(=O)CNC(=O)CNC(=O)CCCCC(=O)NCC(=O)Nc3ccc(COC4(C(=O)O)C[C@H](O)[C@@H](NC(C)=O)[C@H]([C@H](O)[C@H](O)CO)O4)cc3)cc2)(C(=O)O)C[C@@H]1O (some centres not stated)		1000
